Source: patent US11964967B2, “Cardiac sarcomere inhibitors” (Cytokinetics, Inc., priority 2018, dated 2024)
pIC50: −log10 of the molar value.

Molecular target: T1, bovine cardiac myofibrils (Bos taurus, UniProt Q9BE39)
T1 construct: full-length cardiac myosin in the context of the native sarcomere; from tissue; host or cells: bovine cardiac left ventricular tissue, homogenized with detergent (triton X-100)
Assay: Skinned bovine cardiac myofibril ATPase assay (PK/LDH-coupled)
Type: biochemical
Conditions: inhibition of steady-state ATPase activity of bovine cardiac myofibrils, calcium at 75% activation (pCa75), PM12 buffer pH 6.8; for pIC50: read-out: CDMF75 IC50
Method: To evaluate the effect of compounds on the ATPase activity of full-length cardiac myosin in the context of the native sarcomere, skinned myofibril assays were performed. Bovine cardiac myofibrils were obtained by homogenizing bovine cardiac left ventricular tissue in the presence of a detergent such as triton X-100. Such treatment removes membranes and a majority of the soluble cytoplasmic proteins but leaves intact the cardiac sarcomeric acto-myosin apparatus. Myofibril preparations retain the ability to hydrolyze ATP in an Ca^2+ regulated manner ATPase activities of such myofibril preparations in the presence and absence of compounds were assayed at Ca^2+ concentrations activating to a defined fraction of the maximal rate (i.e., 25%, 75%). Small molecule agents were assessed for their ability to inhibit the steady-state ATPase activity of bovine cardiac myofibrils using pyruvate kinase and lactate dehydrogenase (PK/LDH)-coupled enzyme system. This assay regenerates myosin-produced ADP into ATP by oxidizing NADH, producing an absorbance change at 340 nm. Prior to testing small molecule agents, the bovine cardiac myofibrils were assessed for their calcium responsiveness and the calcium concentration that achieves either a 50% (pCa50) or 75% (pCa75) activation of the myofibril system was chosen as the final condition for assessing the inhibitory activity of the small molecule agents. All enzymatic activity was measured in a buffered solution containing 12 mM PIPES (piperazine-N,N′-bis(2-ethanesulfonic acid), 2 mM magnesium chloride at pH 6.8 (PM 12 buffer). Final assay conditions were 1 mg/mL of bovine cardiac myofibrils, 4 U/mL pyruvate kinase, 6 U/mL lactate dehydrogenase, 50 μM ATP, 0.1 mg/mL BSA (bovine serum albumin), 10 ppm antifoam, 1 mM DTT, 0.5 mM NADH, 1.5 mM PEP, 0.6 mM EGTA, and an amount of CaCl2) sufficient to achieve either 50% or 75% activation of the myofibril ATPase activity. Results for compounds tested are provided in Table A. Compounds tested were prepared in accordance with the synthetic procedures described herein.

T1 sequence (Q9BE39 whole entry): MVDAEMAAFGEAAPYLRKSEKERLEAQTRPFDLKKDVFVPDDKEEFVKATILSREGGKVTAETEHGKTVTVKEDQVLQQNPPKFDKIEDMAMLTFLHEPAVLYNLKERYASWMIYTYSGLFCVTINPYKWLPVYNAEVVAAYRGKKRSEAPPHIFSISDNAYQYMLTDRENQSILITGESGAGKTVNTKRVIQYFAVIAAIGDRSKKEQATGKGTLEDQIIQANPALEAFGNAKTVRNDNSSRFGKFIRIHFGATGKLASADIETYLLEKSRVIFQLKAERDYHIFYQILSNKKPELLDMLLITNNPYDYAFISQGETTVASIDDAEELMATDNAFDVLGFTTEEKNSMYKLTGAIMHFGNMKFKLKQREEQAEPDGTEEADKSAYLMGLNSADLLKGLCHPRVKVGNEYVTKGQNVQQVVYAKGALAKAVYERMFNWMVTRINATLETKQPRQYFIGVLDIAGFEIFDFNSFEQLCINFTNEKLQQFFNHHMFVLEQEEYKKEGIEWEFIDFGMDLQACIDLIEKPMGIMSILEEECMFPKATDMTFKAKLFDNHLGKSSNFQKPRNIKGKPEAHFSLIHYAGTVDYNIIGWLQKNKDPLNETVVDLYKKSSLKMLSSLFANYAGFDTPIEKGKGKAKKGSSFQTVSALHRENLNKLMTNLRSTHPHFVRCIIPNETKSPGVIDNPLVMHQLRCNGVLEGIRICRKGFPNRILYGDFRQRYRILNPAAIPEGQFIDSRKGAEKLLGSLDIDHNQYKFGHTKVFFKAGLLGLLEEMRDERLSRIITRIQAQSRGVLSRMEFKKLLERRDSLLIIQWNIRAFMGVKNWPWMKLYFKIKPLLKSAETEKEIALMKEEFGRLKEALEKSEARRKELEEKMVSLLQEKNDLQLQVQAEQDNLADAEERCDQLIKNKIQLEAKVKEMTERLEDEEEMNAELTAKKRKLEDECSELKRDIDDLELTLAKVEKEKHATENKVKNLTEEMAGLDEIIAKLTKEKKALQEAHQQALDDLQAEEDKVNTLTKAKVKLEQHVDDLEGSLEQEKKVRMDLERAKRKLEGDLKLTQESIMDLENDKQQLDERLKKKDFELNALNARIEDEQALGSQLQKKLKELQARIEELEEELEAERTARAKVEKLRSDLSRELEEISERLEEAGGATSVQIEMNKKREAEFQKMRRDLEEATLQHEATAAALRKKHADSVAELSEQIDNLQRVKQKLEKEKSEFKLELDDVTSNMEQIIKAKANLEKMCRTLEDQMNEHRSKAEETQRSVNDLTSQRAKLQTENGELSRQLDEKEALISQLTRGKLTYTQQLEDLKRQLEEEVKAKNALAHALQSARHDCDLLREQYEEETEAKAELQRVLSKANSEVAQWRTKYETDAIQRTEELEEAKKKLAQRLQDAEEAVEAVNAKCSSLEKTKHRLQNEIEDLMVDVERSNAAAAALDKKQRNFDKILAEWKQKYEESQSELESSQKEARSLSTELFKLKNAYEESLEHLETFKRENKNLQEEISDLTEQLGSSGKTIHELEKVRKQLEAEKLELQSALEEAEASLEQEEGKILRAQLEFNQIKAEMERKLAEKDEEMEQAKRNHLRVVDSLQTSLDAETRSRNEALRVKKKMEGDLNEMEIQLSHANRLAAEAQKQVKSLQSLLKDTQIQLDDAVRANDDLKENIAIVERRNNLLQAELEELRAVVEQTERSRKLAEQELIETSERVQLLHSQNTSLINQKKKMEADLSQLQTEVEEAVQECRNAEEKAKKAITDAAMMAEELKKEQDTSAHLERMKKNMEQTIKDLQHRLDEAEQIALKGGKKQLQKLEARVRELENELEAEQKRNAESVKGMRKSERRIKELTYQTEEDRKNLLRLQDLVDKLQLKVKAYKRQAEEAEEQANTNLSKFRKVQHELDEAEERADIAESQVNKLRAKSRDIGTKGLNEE
T1 sequence (P85100 whole entry partner): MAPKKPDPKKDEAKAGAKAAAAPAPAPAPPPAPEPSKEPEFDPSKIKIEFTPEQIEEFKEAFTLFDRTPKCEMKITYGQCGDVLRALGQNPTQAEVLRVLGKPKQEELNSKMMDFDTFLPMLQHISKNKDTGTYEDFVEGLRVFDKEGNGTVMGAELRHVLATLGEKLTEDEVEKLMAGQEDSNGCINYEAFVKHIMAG
T1 sequence (Q3SZE5 whole entry partner): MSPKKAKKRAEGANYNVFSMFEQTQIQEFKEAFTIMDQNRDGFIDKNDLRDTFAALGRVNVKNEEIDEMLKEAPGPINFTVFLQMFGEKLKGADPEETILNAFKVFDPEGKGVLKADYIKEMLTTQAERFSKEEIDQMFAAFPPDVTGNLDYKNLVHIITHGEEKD

CDMF75 IC15	pIC50	Structure (SMILES)
3.9 µM	4.80	CCc1nc(-c2ccc3c(c2)CCC3C(=O)Nc2cnn(C)c2)no1 (stereo not drawn) [Compound 1, 5-(5-ethyl-1,2,4-oxadiazol-3-yl)-N-(1-methyl-1H-pyrazol-4-yl)-2,3-dihydro-1H-indene-1-carboxamide]
2.7 µM	4.94	CC(C)c1nc(-c2ccc3c(c2)CCC32COC(=O)N2)no1 (racemic) [Compound 32, 5-(5-isopropyl-1,2,4-oxadiazol-3-yl)-2,3-dihydrospiro[indene-1,4′-oxazolidin]-2′-one]
1.5 µM	5.24	O=C1NC2(CCc3cc(-c4noc(C5CC5)n4)ccc32)CO1 (racemic) [Compound 35, 5-(5-cyclopropyl-1,2,4-oxadiazol-3-yl)-2,3-dihydrospiro[indene-1,4′-oxazolidin]-2′-one]
